Experimental data from publication PMC7265341, “Quantifying CDK inhibitor selectivity in live cells” (Nature Communications, 2020).
Like-named read-outs stand apart in the source and are kept apart here.

How the values were obtained:
CDK20/Cyclin H = CDK20/Cyclin H (Homo sapiens, UniProt Q8IZL9); assay: NanoBRET live-cell target engagement, NanoLuc-CDK20/Cyclin H in HEK-293; type: binding; conditions: CDK20/H
CDK10/Cyclin L2 = CDK10/Cyclin L2 (Homo sapiens, UniProt Q15131); assay: NanoBRET live-cell target engagement, CDK10-NanoLuc/Cyclin L2 in HEK-293; conditions: CDK10/L2
CDK17/Cyclin Y = CDK17/Cyclin Y (Homo sapiens, UniProt Q00537); assay: NanoBRET live-cell target engagement, CDK17-NanoLuc/Cyclin Y in HEK-293; type: binding; conditions: CDK17/Y; for IC50: read-out: IC50
CDK6/Cyclin D1 = CDK6/Cyclin D1 (Homo sapiens, UniProt Q00534); assay: NanoBRET live-cell target engagement, NanoLuc-CDK6/Cyclin D1 in HEK-293; type: binding; conditions: CDK6/D1; for IC50: read-out: IC50
CDK16/Cyclin Y = CDK16/Cyclin Y (Homo sapiens, UniProt Q00536); assay: NanoBRET live-cell target engagement, CDK16-NanoLuc/Cyclin Y in HEK-293; type: binding; conditions: CDK16/Y; for IC50: read-out: IC50
CDK15/Cyclin Y = CDK15/Cyclin Y (Homo sapiens, UniProt Q96Q40); assay: NanoBRET live-cell target engagement, NanoLuc-CDK15/Cyclin Y in HEK-293; type: binding
CDK1/Cyclin E1 = CDK1/Cyclin E1 (Homo sapiens, UniProt P06493); assay: NanoBRET live-cell target engagement, CDK1-NanoLuc/Cyclin E1 in HEK-293; type: binding; conditions: CDK1/E1
CDK14/Cyclin Y = CDK14/Cyclin Y (Homo sapiens, UniProt O94921); assay: NanoBRET live-cell target engagement, CDK14-NanoLuc/Cyclin Y in HEK-293; type: binding; conditions: CDK14/Y; for IC50: read-out: IC50
CDK19/Cyclin C = CDK19/Cyclin C (Homo sapiens, UniProt Q9BWU1); assay: NanoBRET live-cell target engagement, NanoLuc-CDK19/Cyclin C in HEK-293; conditions: CDK19/C
CDK4/Cyclin D1 = CDK4/Cyclin D1 (Homo sapiens, UniProt P11802); assay: NanoBRET live-cell target engagement, NanoLuc-CDK4/Cyclin D1 in HEK-293; type: binding; conditions: CDK4/D1; for IC50: read-out: IC50
CDK18/Cyclin Y = CDK18/Cyclin Y (Homo sapiens, UniProt Q07002); assay: NanoBRET live-cell target engagement, CDK18-NanoLuc/Cyclin Y in HEK-293; type: binding; conditions: CDK18/Y; for IC50: read-out: IC50
CDK5/CDK5R1 = CDK5/CDK5R1 (Homo sapiens, UniProt Q00535); assay: NanoBRET live-cell target engagement, CDK5-NanoLuc/CDK5R1 in HEK-293; type: binding; conditions: CDK5/CDK5R1
CDK11B/Cyclin L2 = CDK11B/Cyclin L2 (Homo sapiens, UniProt P21127); assay: NanoBRET live-cell target engagement, CDK11B-NanoLuc/Cyclin L2 in HEK-293; type: binding; conditions: CDK11b/L2; for IC50: read-out: IC50
CDK8/Cyclin C = CDK8/Cyclin C (Homo sapiens, UniProt P49336); assay: NanoBRET live-cell target engagement, NanoLuc-CDK8/Cyclin C in HEK-293; type: binding; conditions: CDK8/C
CDK9/Cyclin K = CDK9/Cyclin K (Homo sapiens, UniProt P50750); assay: NanoBRET live-cell target engagement, NanoLuc-CDK9/Cyclin K in HEK-293; type: binding; conditions: CDK9/K
CDK11A/Cyclin L2 = target: T1, CDK11A/Cyclin L2 (Homo sapiens, UniProt Q9UQ88); assay: NanoBRET live-cell target engagement, CDK11A-NanoLuc/Cyclin L2 in HEK-293; type: binding; conditions: CDK11a/L2; for IC50: read-out: IC50
T1 sequence (Q9UQ88 1-783): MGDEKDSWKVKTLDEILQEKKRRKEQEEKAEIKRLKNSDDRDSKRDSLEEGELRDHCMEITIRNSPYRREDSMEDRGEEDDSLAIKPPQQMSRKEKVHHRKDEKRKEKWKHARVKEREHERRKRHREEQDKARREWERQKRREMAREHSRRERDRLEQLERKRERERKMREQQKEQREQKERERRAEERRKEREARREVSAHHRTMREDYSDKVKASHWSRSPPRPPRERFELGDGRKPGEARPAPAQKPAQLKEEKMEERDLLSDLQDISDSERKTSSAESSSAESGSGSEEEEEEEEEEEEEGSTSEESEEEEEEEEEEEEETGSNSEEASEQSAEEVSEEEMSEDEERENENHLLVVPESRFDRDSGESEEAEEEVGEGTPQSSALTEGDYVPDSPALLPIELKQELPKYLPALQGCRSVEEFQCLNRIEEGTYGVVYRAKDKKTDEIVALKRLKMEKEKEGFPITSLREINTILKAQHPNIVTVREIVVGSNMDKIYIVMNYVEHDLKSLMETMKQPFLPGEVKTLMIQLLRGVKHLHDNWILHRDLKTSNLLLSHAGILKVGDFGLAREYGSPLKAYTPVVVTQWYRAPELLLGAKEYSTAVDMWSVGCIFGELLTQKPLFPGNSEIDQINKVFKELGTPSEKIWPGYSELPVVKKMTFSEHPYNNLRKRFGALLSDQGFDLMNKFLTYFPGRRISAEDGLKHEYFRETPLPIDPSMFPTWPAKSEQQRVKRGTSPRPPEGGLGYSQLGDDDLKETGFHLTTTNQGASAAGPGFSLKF

CDK7 = CDK7 (Homo sapiens, UniProt P50613); assay: NanoBRET live-cell target engagement, NanoLuc-CDK7 in HEK-293; type: binding; conditions: CDK7; for IC50: read-out: IC50
CDK12/Cyclin K = CDK12/Cyclin K (Homo sapiens, UniProt Q9NYV4); assay: NanoBRET live-cell target engagement, CDK12-NanoLuc/Cyclin K in HEK-293; type: binding; conditions: CDK12/K
CDK13/Cyclin K = CDK13/Cyclin K (Homo sapiens, UniProt Q14004); assay: NanoBRET live-cell target engagement, CDK13-NanoLuc/Cyclin K in HEK-293; type: binding; conditions: CDK13/K

Chain of CDK1/Cyclin E1 (P06493 whole entry): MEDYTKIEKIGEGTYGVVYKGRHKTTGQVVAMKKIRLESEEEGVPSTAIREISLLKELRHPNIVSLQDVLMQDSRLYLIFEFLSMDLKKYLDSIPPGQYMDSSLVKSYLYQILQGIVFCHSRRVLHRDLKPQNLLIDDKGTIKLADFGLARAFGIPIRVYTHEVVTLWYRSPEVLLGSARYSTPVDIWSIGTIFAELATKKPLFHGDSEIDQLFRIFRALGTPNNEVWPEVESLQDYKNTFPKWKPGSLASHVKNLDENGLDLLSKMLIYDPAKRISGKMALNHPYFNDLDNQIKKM
Chain of CDK1/Cyclin E1 (P24864 whole entry partner): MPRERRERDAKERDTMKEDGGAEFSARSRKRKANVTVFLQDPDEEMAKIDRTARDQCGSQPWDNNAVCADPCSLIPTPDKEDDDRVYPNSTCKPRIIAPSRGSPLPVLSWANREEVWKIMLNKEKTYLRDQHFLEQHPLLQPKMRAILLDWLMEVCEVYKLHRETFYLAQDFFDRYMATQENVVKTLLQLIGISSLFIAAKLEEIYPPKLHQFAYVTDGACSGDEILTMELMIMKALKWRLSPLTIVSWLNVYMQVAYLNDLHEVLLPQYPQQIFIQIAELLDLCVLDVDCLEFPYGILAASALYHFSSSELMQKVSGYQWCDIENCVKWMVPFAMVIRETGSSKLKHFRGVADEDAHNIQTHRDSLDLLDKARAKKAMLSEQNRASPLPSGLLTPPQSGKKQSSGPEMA
Chain of CDK11B/Cyclin L2 (P21127 1-782 isoform P21127-2): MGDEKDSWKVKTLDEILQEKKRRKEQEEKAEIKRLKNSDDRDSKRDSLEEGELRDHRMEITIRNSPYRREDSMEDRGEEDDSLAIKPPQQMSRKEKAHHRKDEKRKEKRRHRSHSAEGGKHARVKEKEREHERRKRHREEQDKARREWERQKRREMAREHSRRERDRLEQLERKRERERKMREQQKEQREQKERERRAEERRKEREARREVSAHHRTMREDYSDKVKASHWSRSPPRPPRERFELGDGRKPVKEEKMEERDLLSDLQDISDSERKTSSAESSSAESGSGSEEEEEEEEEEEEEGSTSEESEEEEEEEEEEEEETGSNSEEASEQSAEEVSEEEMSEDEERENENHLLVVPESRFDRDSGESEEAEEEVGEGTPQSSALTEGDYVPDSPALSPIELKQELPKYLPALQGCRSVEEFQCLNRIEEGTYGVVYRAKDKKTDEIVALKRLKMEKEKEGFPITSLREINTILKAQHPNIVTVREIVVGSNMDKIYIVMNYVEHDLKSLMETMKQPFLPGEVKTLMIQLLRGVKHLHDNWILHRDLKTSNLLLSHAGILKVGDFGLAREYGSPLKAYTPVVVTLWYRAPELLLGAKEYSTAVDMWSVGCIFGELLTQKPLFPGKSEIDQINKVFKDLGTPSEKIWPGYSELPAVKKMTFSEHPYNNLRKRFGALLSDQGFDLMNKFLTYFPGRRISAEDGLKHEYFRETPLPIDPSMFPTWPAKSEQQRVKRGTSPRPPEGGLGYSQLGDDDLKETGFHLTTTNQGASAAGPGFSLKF
Chain of CDK4/Cyclin D1 (P11802 whole entry): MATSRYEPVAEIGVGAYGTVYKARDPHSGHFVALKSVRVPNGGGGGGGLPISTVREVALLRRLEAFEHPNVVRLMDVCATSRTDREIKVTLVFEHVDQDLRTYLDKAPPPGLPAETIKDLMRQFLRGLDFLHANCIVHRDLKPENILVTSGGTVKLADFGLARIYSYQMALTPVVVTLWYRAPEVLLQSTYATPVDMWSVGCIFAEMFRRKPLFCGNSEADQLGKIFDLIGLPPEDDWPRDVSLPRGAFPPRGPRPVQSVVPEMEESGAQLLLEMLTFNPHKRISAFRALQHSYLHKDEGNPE
Chain of CDK4/Cyclin D1 (P24385 whole entry partner): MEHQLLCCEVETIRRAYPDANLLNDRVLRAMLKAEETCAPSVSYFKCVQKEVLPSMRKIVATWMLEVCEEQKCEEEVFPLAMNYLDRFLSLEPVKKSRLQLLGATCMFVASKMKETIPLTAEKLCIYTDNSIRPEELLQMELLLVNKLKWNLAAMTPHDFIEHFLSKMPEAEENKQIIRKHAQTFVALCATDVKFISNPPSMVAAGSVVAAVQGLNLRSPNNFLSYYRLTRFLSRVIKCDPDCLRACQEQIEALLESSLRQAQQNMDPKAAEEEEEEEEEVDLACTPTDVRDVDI
Chain of CDK19/Cyclin C (Q9BWU1 whole entry): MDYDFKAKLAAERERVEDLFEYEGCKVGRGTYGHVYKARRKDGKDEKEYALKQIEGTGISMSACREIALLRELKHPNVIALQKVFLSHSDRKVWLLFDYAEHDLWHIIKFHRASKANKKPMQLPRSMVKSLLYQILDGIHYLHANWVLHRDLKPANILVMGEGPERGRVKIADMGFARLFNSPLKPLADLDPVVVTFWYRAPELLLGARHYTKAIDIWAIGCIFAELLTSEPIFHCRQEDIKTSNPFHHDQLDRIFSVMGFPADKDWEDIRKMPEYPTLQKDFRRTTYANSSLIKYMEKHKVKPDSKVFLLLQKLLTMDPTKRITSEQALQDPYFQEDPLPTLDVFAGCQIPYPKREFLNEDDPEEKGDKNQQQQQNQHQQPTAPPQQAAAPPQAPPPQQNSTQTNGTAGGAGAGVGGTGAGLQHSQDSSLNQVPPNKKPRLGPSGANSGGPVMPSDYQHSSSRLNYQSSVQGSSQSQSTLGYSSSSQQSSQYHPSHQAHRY
Chain of CDK19/Cyclin C (P24863 whole entry partner): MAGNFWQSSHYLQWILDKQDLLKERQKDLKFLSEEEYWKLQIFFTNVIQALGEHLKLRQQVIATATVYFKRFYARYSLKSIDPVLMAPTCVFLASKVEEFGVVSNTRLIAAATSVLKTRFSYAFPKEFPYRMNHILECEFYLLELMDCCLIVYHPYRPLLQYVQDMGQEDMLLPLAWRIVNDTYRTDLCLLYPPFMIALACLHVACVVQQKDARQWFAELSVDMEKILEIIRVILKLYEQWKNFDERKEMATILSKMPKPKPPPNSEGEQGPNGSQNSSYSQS
Chain of CDK10/Cyclin L2 (Q15131 whole entry): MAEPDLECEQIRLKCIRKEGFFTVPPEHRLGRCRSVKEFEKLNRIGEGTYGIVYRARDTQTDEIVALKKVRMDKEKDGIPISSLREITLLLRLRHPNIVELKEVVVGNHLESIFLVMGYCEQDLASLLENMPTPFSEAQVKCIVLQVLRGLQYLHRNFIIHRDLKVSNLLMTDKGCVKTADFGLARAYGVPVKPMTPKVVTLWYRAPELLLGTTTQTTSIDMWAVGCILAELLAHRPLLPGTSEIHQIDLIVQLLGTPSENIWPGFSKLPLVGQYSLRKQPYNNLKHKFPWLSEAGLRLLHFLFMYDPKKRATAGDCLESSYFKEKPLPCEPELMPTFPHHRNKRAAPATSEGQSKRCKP
Chain of CDK6/Cyclin D1 (Q00534 whole entry): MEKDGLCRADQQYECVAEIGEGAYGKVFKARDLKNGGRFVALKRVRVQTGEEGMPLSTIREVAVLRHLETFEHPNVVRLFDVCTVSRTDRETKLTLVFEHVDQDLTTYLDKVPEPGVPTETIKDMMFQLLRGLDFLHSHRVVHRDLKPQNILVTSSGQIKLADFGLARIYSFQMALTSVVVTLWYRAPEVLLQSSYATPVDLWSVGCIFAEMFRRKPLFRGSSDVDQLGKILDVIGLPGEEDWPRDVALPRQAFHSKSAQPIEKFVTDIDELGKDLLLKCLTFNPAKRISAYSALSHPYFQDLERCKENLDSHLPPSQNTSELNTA
Chain of CDK6/Cyclin D1 (P24385 whole entry partner): as the sequence (P24385 whole entry partner) above
Chain of CDK17/Cyclin Y (Q00537 whole entry): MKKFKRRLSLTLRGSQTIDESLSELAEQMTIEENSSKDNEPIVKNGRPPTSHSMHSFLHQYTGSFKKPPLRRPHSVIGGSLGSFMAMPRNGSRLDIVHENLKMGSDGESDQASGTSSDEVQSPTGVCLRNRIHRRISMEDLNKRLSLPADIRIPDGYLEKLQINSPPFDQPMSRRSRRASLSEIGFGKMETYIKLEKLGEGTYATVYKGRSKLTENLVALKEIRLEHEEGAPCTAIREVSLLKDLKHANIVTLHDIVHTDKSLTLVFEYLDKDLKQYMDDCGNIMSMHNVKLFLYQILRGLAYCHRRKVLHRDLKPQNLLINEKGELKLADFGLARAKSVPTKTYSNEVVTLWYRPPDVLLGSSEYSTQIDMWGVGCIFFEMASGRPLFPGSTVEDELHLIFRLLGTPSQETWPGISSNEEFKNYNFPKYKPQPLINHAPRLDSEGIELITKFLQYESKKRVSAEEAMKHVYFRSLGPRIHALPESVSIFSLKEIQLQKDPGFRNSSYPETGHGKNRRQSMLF
Chain of CDK17/Cyclin Y (Q8ND76 whole entry partner): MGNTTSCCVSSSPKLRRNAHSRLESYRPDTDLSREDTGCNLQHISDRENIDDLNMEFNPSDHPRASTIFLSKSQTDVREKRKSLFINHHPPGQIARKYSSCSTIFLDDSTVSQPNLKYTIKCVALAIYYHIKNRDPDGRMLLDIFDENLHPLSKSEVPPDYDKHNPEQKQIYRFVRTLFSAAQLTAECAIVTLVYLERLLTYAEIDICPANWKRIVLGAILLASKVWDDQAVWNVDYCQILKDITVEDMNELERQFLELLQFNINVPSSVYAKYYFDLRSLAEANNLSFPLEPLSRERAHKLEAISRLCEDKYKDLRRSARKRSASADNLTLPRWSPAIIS
Chain of CDK7 (P50613 whole entry): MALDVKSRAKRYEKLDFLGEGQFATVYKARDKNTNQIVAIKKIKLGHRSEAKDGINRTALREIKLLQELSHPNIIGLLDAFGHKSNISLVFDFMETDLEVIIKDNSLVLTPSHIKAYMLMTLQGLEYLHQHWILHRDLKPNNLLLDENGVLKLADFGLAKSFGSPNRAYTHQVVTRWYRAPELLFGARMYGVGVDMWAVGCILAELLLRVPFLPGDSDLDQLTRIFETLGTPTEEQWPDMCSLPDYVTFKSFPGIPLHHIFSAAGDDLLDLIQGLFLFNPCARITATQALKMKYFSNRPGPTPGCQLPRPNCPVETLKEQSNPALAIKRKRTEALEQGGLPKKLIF

CC(C)c1c2cc(-c3ccnc(N[C@H]4CC[C@H](NC5CCOCC5)CC4)n3)ccc2nn1C [LY2857785]
Inhibition at 10µM (%) (CDK20/Cyclin H; experiment 1): 39.4% | Inhibition at 10µM (%) (CDK20/Cyclin H; experiment 2): 39.8% | Inhibition at 10µM (%) (CDK10/Cyclin L2; average): 80.7% | IC50 (CDK10/Cyclin L2; average (± SEM where n=3)): 0.6 µM | IC50 (CDK10/Cyclin L2; experiment 1): 0.49 µM | Inhibition at 10µM (%) (CDK10/Cyclin L2; experiment 1): 81.9% | IC50 (CDK10/Cyclin L2; experiment 2): 0.71 µM | Inhibition at 10µM (%) (CDK10/Cyclin L2; experiment 2): 79.4% | Inhibition at 10µM (%) (CDK17/Cyclin Y; average): 90.5% | IC50 (CDK17/Cyclin Y; average (± SEM where n=3)): 0.041 µM | Inhibition at 10µM (%) (CDK17/Cyclin Y; experiment 1): 89.7% | IC50 (CDK17/Cyclin Y; experiment 1): 0.015 µM | Inhibition at 10µM (%) (CDK17/Cyclin Y; experiment 2): 91.4% | IC50 (CDK17/Cyclin Y; experiment 2): 0.067 µM | Inhibition at 10µM (%) (CDK6/Cyclin D1; average): 96.5% | IC50 (CDK6/Cyclin D1; average (± SEM where n=3)): 0.11 µM | Inhibition at 10µM (%) (CDK6/Cyclin D1; experiment 1): 96.6% | IC50 (CDK6/Cyclin D1; experiment 1): 0.124 µM | Inhibition at 10µM (%) (CDK6/Cyclin D1; experiment 2): 96.3% | IC50 (CDK6/Cyclin D1; experiment 2): 0.098 µM | IC50 (CDK16/Cyclin Y; average (± SEM where n=3)): 0.16 µM | Inhibition at 10µM (%) (CDK16/Cyclin Y; experiment 1): 82.9% | IC50 (CDK16/Cyclin Y; experiment 1): 0.22 µM | Inhibition at 10µM (%) (CDK16/Cyclin Y; experiment 2): 91.1% | IC50 (CDK16/Cyclin Y; experiment 2): 0.091 µM | Inhibition at 10µM (%) (CDK15/Cyclin Y; CDK15/Y, average): 93.6% | IC50 (CDK15/Cyclin Y; CDK15/Y, average (± SEM where n=3), read-out: IC50): 0.32 µM | Inhibition at 10µM (%) (CDK15/Cyclin Y; CDK15/Y, experiment 1): 93.4% | IC50 (CDK15/Cyclin Y; CDK15/Y, experiment 1, read-out: IC50): 0.323 µM | Inhibition at 10µM (%) (CDK15/Cyclin Y; CDK15/Y, experiment 2): 93.9% | IC50 (CDK15/Cyclin Y; CDK15/Y, experiment 2, read-out: IC50): 0.32 µM | IC50 (CDK15/Cyclin Y; live HEK-293, 2 h, mean ± S.E.M. (n=3) or mean (n=2), read-out: IC50 for CDK/cyclin complexes, CDK15/Y): 0.32 µM | Inhibition at 10µM (%) (CDK1/Cyclin E1; average): 76.5% | Inhibition at 10µM (%) (CDK1/Cyclin E1; experiment 1): 76.1% | Inhibition at 10µM (%) (CDK1/Cyclin E1; experiment 2): 76.9% | Inhibition at 10µM (%) (CDK14/Cyclin Y; average): 90.6% | IC50 (CDK14/Cyclin Y; average (± SEM where n=3)): 0.51 µM | Inhibition at 10µM (%) (CDK14/Cyclin Y; experiment 1): 90.3% | IC50 (CDK14/Cyclin Y; experiment 1): 0.392 µM | Inhibition at 10µM (%) (CDK14/Cyclin Y; experiment 2): 90.9% | IC50 (CDK14/Cyclin Y; experiment 2): 0.63 µM | Inhibition at 10µM (%) (CDK19/Cyclin C; average): 82.9% | Inhibition at 10µM (%) (CDK19/Cyclin C; experiment 1): 90.1% | Inhibition at 10µM (%) (CDK19/Cyclin C; experiment 2): 75.7% | Inhibition at 10µM (%) (CDK4/Cyclin D1; average): 97.1% | IC50 (CDK4/Cyclin D1; average (± SEM where n=3)): 0.04 µM | Inhibition at 10µM (%) (CDK4/Cyclin D1; experiment 1): 97.8% | IC50 (CDK4/Cyclin D1; experiment 1): 0.044 µM | Inhibition at 10µM (%) (CDK4/Cyclin D1; experiment 2): 96.5% | IC50 (CDK4/Cyclin D1; experiment 2): 0.036 µM | Inhibition at 10µM (%) (CDK18/Cyclin Y; average): 96.0% | IC50 (CDK18/Cyclin Y; average (± SEM where n=3)): 0.29 µM | Inhibition at 10µM (%) (CDK18/Cyclin Y; experiment 1): 91.6% | IC50 (CDK18/Cyclin Y; experiment 1): 0.204 µM | Inhibition at 10µM (%) (CDK18/Cyclin Y; experiment 2): 100.3% | IC50 (CDK18/Cyclin Y; experiment 2): 0.37 µM | Inhibition at 10µM (%) (CDK5/CDK5R1; average): 68.7% | Inhibition at 10µM (%) (CDK5/CDK5R1; experiment 1): 68.7% | Inhibition at 10µM (%) (CDK5/CDK5R1; experiment 2): 68.7% | Inhibition at 10µM (%) (CDK11B/Cyclin L2; average): 94.8% | IC50 (CDK11B/Cyclin L2; average (± SEM where n=3)): 0.024 µM | Inhibition at 10µM (%) (CDK11B/Cyclin L2; experiment 1): 95.7% | IC50 (CDK11B/Cyclin L2; experiment 1): 0.021 µM | Inhibition at 10µM (%) (CDK11B/Cyclin L2; experiment 2): 93.9% | IC50 (CDK11B/Cyclin L2; experiment 2): 0.027 µM | Inhibition at 10µM (%) (CDK8/Cyclin C; average): 83.7% | Inhibition at 10µM (%) (CDK8/Cyclin C; experiment 1): 88.4% | Inhibition at 10µM (%) (CDK8/Cyclin C; experiment 2): 79.0% | Inhibition at 10µM (%) (CDK9/Cyclin K; average): 97.9% | Inhibition at 10µM (%) (CDK9/Cyclin K; experiment 1): 98.0% | Inhibition at 10µM (%) (CDK9/Cyclin K; experiment 2): 97.9% | Inhibition at 10µM (%) (CDK11A/Cyclin L2; average): 95.5% | IC50 (CDK11A/Cyclin L2; average (± SEM where n=3)): 0.017 µM | Inhibition at 10µM (%) (CDK11A/Cyclin L2; experiment 1): 95.3% | IC50 (CDK11A/Cyclin L2; experiment 1): 0.01 µM | Inhibition at 10µM (%) (CDK11A/Cyclin L2; experiment 2): 95.7% | IC50 (CDK11A/Cyclin L2; experiment 2): 0.023 µM | Inhibition at 10µM (%) (CDK7; average): 92.6% | IC50 (CDK7; average (± SEM where n=3)): 0.031 µM | Inhibition at 10µM (%) (CDK7; experiment 1): 91.7% | IC50 (CDK7; experiment 1): 0.028 µM | Inhibition at 10µM (%) (CDK7; experiment 2): 93.4% | IC50 (CDK7; experiment 2): 0.034 µM | Inhibition at 10µM (%) (CDK12/Cyclin K; average): 43.6% | Inhibition at 10µM (%) (CDK12/Cyclin K; experiment 1): 48.1% | Inhibition at 10µM (%) (CDK12/Cyclin K; experiment 2): 39.1% | Inhibition at 10µM (%) (CDK13/Cyclin K; average): 26.3% | Inhibition at 10µM (%) (CDK13/Cyclin K; experiment 1): 28.2% | Inhibition at 10µM (%) (CDK13/Cyclin K; experiment 2): 24.3%
